In patent US20100292246A1, “FORMULATIONS OF 1-(4-BENZOYL-PIPERAZIN-1-YL)-2-[4-METHOXY-7-(3-METHYL-[1,2,4]TRIAZOL-1-YL)-1H-PYRROLO[2,3-C]PYRIDIN-3-YL]-ETHANE-1,2-DIONE” (Bristol-Myers Squibb Company, priority 2004, published 2010):
Converted amounts (≈) assume the structure as drawn.

Columns and labels:
[1] = as disclosed in co-pending application; cited from earlier work
[2] = aqueous solubility of crystalline Compound (I); assay type: physicochemical; settings: water (aqueous); crystalline material P-1
Description: Compound (I) exists in several different crystalline forms: P-1, P-2, P-3, and P-4. […] The present invention relates to formulations that effectively deliver Compound (I).

Compound	solubility of Compound (I) in crystalline form [1]	solubility [2]
COc1cnc(-n2cnc(C)n2)c2[nH]cc(C(=O)C(=O)N3CCN(C(=O)c4ccccc4)CC3)c12 [Compound (I), 1-(4-benzoyl-piperazin-1-yl)-2-[4-methoxy-7-(3-methyl-[1,2,4]triazol-1-yl)-1H-pyrrolo[2,3-c]pyridin-3-yl]-ethane-1,2-dione]	typically low	–
COc1cnc(-n2cnc(C)n2)c2[nH]cc(C(=O)C(=O)N3CCN(C(=O)c4ccccc4)CC3)c12 [Sample P-1, 1-(4-benzoyl-piperazin-1-yl)-2-[4-methoxy-7-(3-methyl-[1,2,4]triazol-1-yl)-1H-pyrrolo[2,3-c]pyridin-3-yl]-ethane-1,2-dione]	–	2.7 µg/mL (≈ 5.7 µM)
